Experimental findings from PMC4256678 (Nature neuroscience, 2014) are described below.

Broadly, the Kd is the concentration at which binding is half-saturated. A high value points to lower affinity.

For one assay, the target named is T1, HDAC8 (Homo sapiens, UniProt Q9BY41).
T1 sequence (Q9BY41 1-377): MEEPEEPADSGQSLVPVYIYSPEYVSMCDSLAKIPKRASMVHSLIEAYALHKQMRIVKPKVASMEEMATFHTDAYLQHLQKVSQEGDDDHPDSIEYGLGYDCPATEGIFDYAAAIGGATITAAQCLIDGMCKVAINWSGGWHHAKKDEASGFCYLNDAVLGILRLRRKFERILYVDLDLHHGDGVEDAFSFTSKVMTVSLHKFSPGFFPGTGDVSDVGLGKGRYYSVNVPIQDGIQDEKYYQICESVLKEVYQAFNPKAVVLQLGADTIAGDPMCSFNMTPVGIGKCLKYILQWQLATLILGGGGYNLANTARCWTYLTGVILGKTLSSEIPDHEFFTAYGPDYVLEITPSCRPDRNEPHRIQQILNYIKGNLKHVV
Description: fluorometric HDAC activity assay, […]. The class given is biochemical.

The target in assay [1] is T2, HDAC2 (Homo sapiens, UniProt Q92769). Description: fluorometric HDAC activity assay, […]. The class given is biochemical.
T2 sequence (Q92769 whole entry): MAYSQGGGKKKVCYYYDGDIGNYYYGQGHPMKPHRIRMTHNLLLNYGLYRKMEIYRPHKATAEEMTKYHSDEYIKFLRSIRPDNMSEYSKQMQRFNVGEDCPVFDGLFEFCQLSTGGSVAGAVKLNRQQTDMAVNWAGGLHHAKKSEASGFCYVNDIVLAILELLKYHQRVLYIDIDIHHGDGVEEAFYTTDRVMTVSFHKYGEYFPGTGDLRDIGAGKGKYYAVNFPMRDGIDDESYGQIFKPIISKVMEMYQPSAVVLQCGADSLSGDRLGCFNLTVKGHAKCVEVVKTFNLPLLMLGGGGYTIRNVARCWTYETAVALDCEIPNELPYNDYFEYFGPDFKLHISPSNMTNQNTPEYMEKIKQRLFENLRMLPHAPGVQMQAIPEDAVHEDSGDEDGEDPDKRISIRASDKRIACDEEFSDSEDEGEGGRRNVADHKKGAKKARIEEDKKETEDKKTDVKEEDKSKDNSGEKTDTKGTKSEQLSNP
The target of assay [2] is T3, HDAC3 (Homo sapiens, UniProt O15379). Description: fluorometric HDAC activity assay, […]. It is filed as biochemical.
T3 sequence (O15379 whole entry): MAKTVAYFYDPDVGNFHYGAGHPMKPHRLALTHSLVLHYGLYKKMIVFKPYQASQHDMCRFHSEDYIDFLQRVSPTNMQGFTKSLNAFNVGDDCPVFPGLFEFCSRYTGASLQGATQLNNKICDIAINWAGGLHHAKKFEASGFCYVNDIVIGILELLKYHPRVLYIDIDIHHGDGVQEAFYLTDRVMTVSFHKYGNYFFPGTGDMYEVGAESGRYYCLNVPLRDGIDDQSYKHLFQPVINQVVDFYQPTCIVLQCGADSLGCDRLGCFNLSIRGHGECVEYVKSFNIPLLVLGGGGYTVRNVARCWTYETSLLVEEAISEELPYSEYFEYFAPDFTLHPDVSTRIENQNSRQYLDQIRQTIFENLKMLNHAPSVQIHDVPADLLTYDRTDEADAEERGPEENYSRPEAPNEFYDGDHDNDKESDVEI
Another assay concerns the target HDAC1 (Homo sapiens, UniProt Q13547). Nature of the assay: […]FTY720-P radioligand binding and displacement on Ni-NTA immobilized HDAC1.
For assay [3], the target named is T3, HDAC3. Description: fluorometric HDAC activity assay, […]. It is filed as biochemical. The source holds these as a separate data set.
The target in assay [4] is T2, HDAC2. Description: fluorometric HDAC activity assay, […]. It is filed as biochemical. This is another data set of the same source.

SMILES strings stand for the structures.

Sequence of HDAC1 (Q13547 whole entry): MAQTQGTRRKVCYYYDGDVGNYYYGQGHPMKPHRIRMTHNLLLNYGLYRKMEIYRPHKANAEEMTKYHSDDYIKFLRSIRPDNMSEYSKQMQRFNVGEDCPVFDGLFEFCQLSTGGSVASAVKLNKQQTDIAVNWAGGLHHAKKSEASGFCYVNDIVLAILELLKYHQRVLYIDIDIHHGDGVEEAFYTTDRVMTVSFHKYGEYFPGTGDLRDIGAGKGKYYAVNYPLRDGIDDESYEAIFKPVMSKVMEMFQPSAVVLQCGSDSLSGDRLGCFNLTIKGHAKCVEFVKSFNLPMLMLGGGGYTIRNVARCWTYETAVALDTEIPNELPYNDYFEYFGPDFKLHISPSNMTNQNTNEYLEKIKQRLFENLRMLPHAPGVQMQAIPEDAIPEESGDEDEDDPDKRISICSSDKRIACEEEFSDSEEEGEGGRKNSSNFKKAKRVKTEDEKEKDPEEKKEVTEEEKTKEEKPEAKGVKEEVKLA

Regarding `CCCCCCCCc1ccc(CC[C@](N)(CO)COP(=O)(O)O)cc1` [FTY720-P], the “fluorometric HDAC activity assay, 0.5 or 5 uM” value on HDAC8 is “FTY720-P inhibited the activities of highly purified recombinant class I HDACs (HDAC1, HDAC2, HDAC3 and HDAC8)”; at HDAC2 [1], “FTY720-P inhibited the activities of highly purified recombinant class I HDACs (HDAC1, HDAC2, HDAC3 and HDAC8)”; on HDAC3 [2], “FTY720-P inhibited the activities of highly purified recombinant class I HDACs (HDAC1, HDAC2, HDAC3 and HDAC8)”. The Kd on HDAC1 amounted to 6.2 nM.

Turning to `CCCCCCCCCCCCC/C=C/[C@@H](O)[C@@H](N)COP(=O)(O)O` [S1P], the “fluorometric HDAC activity assay, 5 uM” value is reported as “Even though S1P inhibited HDAC1–HDAC3, it did not inhibit HDAC8 activity” on HDAC3 [3] and “Even though S1P inhibited HDAC1–HDAC3, it did not inhibit HDAC8 activity” at HDAC2 [4].
